Experimental data reported in patent US20160068883A1, “MICRO-FLUIDIC MIXER AND METHOD OF DETERMINING PATHOGEN INACTIVATION VIA ANTIMICROBIAL SOLUTIONS” (The United States of America, as represented by the …, priority 2014, published 2016).
Several values for one entry are separate records, joined by “and”; a condition that tells them apart may be missing. Identical values can stand only once.

Tests used:
E. coli O157:H7 = E. coli O157:H7 inactivation by free chlorine in the micro-fluidic mixer (MPN enumeration); format: cell-based, Escherichia coli O157:H7 (RM4406, ATCC 700728)
E. coli = experiment: Decimal reduction time (D-value) calculated from the Watson and Hom inactivation models; set-up: species or system Escherichia coli O157:H7
Description: Kinetic modeling was also applied to simplify the complicated disinfection phenomena of produce wash system. Three models that are commonly used for studying bacterial disinfection kinetics with chemical-based disinfectant, including the Chick-Watson Model, the Hom Model, and the Selleck Model.
Watson developed an empirical logarithmic equation to relate the inactivation constant (k) to disinfectant concentration (C) and reaction time (t):
The Hom model is a generalized empirical equation of the Chick-Watson model considering chlorine disinfection as a pseudo first-order reaction:
The D-value here was calculated based on the empirical models developed in this study, namely the Watson model (equation 3) and the Hom model (equation 5). […] By increasing chlorine concentration to […], the D-value reduces to […] respectively.

## OCl [free chlorine, hypochlorous acid]
E. coli O157:H7; 1 mg/L free chlorine
  contact time to achieve a 5-log reduction: more than 1.2 second
E. coli O157:H7; 1.0 mg/L free chlorine, 0.25 second contact, suspension 1×10^8 CFU/mL
  log reduction of E. coli O157:H7: 0.14 log
E. coli O157:H7; 1.0 mg/L free chlorine, 1.00 second contact, suspension 1×10^8 CFU/mL
  log reduction of E. coli O157:H7: 4.97 log
E. coli O157:H7; 5 mg/L free chlorine
  contact time to achieve a 5-log reduction: 0.50 second
E. coli O157:H7; 10 mg/L free chlorine
  contact time to achieve a 5-log reduction: 0.25 second and 0.2 second
E. coli O157:H7; 10.0 mg/L free chlorine, 0.25 second contact
  log reduction of E. coli O157:H7: 5.77 log
E. coli O157:H7; 10 mg/L free chlorine, listed as chlorine
  contact time to achieve a 5-log reduction: 0.2 second
E. coli O157:H7; 20 mg/L free chlorine
  contact time to achieve a 5-log reduction: 0.25 second
E. coli O157:H7; chlorine 50 mg/L, pathogen solution 10^8 MPN/mL, without dechlorinating solution
  bacterial survival in collected effluent (total pathogen inactivation control): no bacterial survival detected
E. coli; 1 mg/L free chlorine
  D-value (decimal reduction time, 90% / one log reduction): 28.06 milliseconds
E. coli; chlorine 5 (so in the source)
  D-value (decimal reduction time, 90% / one log reduction): 5.72 milliseconds
E. coli; chlorine 10 (so in the source)
  D-value (decimal reduction time, 90% / one log reduction): 2.87 milliseconds
E. coli; chlorine 20 (so in the source)
  D-value (decimal reduction time, 90% / one log reduction): 1.43 milliseconds
